The text below walks through data of PubChem BioAssay (NCI).

Assay in all cases: NCI-60 cell line screen, 48 h
The test system of assay [1] is K-562 leukemia.
Assay [2] deals with SK-MEL-2 melanoma.
Assay [3] relates to SR leukemia.
In assay [4] the test system is CAKI-1 renal.
Assay [5] deals with SF-539 CNS.
Assay [6] deals with EKVX NSCLC.
In assay [7] the test system is MCF7 breast.
The test system of assay [8] is CCRF-CEM leukemia.
Assay [9] concerns IGROV1 ovarian.
Assay [10] concerns NCI-H460 lung.

Where “and” joins values, the source holds several entries; their conditions need not be identical. Identical values can stand only once.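 Cultured in 96-well plates, cells were exposed to test compound for 48 hours across five concentrations. GI50: concentration for 50% inhibition of growth. TGI: concentration producing complete growth inhibition.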

On to `c1ccc2cc(OCC3CO3)c(OCC3CO3)cc2c1` (stereo unspecified), for which the TGI was 25.1 µM in [1]; 29 µM in assay [2]; 2.15 µM in assay [3]; 37.6 µM in assay [4]; 9.13 µM in [5]; 24.1 µM in [6]. The TGI in [7] was determined as 10.1 µM; in assay [8] it was 1.48 µM; in assay [9], 11.1 µM; in assay [10] it was 15.8 µM.
With `C=C1CC2(OC1=O)c1ccccc1C=Cc1ccccc12`, the TGI in [1] came out at 10.7 µM; in assay [2] it was 16.5 µM; in assay [3], 9.17 µM; in [4] it was 6.08 µM; in [5] it was 6.72 µM; in assay [6], 18.3 µM. The TGI came out at 6.54 µM in assay [7], 6.58 µM in assay [8], 15.9 µM in assay [9] and 25.4 µM in [10].
`CN(C)CCOc1nc2c3cccnc3cc(-c3cccc(Cl)c3)c2c2ncccc12`: the GI50 was 1.13 µM in assay [1]; 1.9 µM in assay [2]; 0.371 µM in assay [3]; 1.1 µM in [4]; 1.65 µM in assay [5]; 1.7 µM in assay [6]. Further, the GI50 in [7] was 1.28 µM; in [8] it was 1.26 µM; in assay [9] it was 0.905 µM; in assay [10] it was 0.836 µM. The TGI is 2.74 µM in assay [1]; 3.79 µM in assay [2]; 2.15 µM in [3]; 2.92 µM in [4]; 3.08 µM in assay [5]; 4.62 µM in assay [6]. The TGI was found to be 2.68 µM in assay [7], 6.73 µM in assay [8], 3.2 µM in assay [9] and 2.24 µM in assay [10].
Take `CC(C)c1cc(CNc2nc(Nc3cc(C4CC4)[nH]n3)cc(N3CCN(C)CC3)n2)on1`: the TGI in assay [1] is > 10 µM and 14.5 µM; in assay [2], > 10 µM and 2.29 µM; in assay [3] it was 3.42 µM and 1.47 µM; in assay [4] it was > 10 µM and 4.09 µM; in assay [5], > 10 µM and 1.02 µM; in assay [6], > 10 µM. For the same compound, the TGI in assay [7] was > 10 µM and 13.1 µM; in [8], > 100 µM; in assay [9], 4.94 µM and 7.13 µM; in [10], > 10 µM and 1.42 µM. Besides, the GI50 in assay [2] was 1.69 µM and 0.646 µM; in [3] it was 0.0422 µM and < 0.0198 µM; in [4], 1.88 µM and 1.12 µM; in assay [6], 0.587 µM; in assay [8], 4.62 µM and 1.02 µM; in [9], 0.462 µM and 0.175 µM.
Take `CC12CCc3ccccc3C1=Nc1ccccc12` (stereo unspecified): the TGI in [1] is > 100 µM; in [2] it was > 100 µM; in [3], > 100 µM; in [4] it was 51.6 µM; in assay [5], 78.5 µM; in [6], > 100 µM. The TGI in assay [7] is > 100 µM; in assay [8], 47.3 µM; in assay [9] it was > 100 µM; in assay [10], > 100 µM.
`O=C(NCCCNC(=O)OCc1ccc2c(Br)cc(Br)c(O)c2n1)OCc1ccc2c(Br)cc(Br)c(O)c2n1`: the GI50 in [1], in assay [2], in [3], in assay [4], in assay [5] and in assay [6] was > 100 µM each time. In addition, the GI50 in assay [7], in [8], in assay [9] and in assay [10] was > 100 µM throughout. In addition, the TGI in [1], in assay [2], in assay [3], in assay [4], in [5] and in [6] was > 100 µM in each case. Also, the TGI in assay [7], in assay [8], in assay [9] and in assay [10] was > 100 µM in each case.
Turning to `CCCCCCNC(=O)Oc1ccc(/C(=C(\C)c2ccccc2)c2ccc(OCCN3CCCCC3)cc2)cc1`, the GI50 in assay [1] is 1.7 µM; in [2], 2 µM; in assay [3], 1.73 µM; in assay [4], 2.2 µM; in assay [5] it was 1.75 µM; in assay [6] it was 4.11 µM. In addition, the GI50 in [7] is 0.0428 µM; in assay [8], 3.05 µM; in assay [9], 3.01 µM; in assay [10], 2.05 µM. The TGI was determined as 4.96 µM in assay [1]; 4.33 µM in [2]; 4.39 µM in [3]; 5.11 µM in assay [4]; 3.22 µM in assay [5]; 18 µM in assay [6]. Further, the TGI was determined as 3.64 µM in assay [7], 17.2 µM in assay [8], 8.85 µM in [9] and 4.35 µM in assay [10].
For the compound `CS(=O)c1ccc(-c2nc(-c3ccc(F)cc3)c(-c3ccncc3)[nH]2)cc1` (stereo unspecified), the GI50 is 25 µM in assay [1]; 23 µM in assay [2]; 16.4 µM in assay [3]; 21.6 µM in [4]; 44.8 µM in assay [5]; 49 µM in assay [6]. The GI50 in [7] is 33.6 µM; in assay [8], 27.3 µM; in assay [9], 21.9 µM; in [10], 33.5 µM. For the same compound, the TGI in assay [1] is > 100 µM; in assay [2], 49.4 µM; in assay [3], > 77 µM; in [4] it was > 81.9 µM; in assay [5] it was > 100 µM; in assay [6], > 100 µM. The TGI in [7] is > 100 µM; in assay [8] it was > 100 µM; in assay [9], > 85.5 µM; in assay [10], > 100 µM.
